Measured values taken from BindingDB's records for doi:10.1016/j.bmc.2020.115716 (Chemical Diversity Research Institute, 2020).

Tests used:
[1] = Inhibition of HCV genotype 4a NS5A infected in Huh7 cells assessed as reduction in viral replication incubated 3 days and measured by bright Glo-luciferase reporter gene assay
[2] = Inhibition of HCV genotype 5a NS5A infected in Huh7 cells assessed as reduction in viral replication incubated 3 days and measured by bright Glo-luciferase reporter gene assay
[3] = Inhibition of HCV genotype 1a NS5A infected in Huh7 cells assessed as reduction in viral replication incubated 3 days and measured by bright Glo-luciferase reporter gene assay
[4] = Inhibition of HCV genotype 3a NS5A infected in Huh7 cells assessed as reduction in viral replication incubated 3 days and measured by bright Glo-luciferase reporter gene assay
[5] = Inhibition of HCV genotype 2a NS5A infected in Huh7 cells assessed as reduction in viral replication incubated 3 days and measured by bright Glo-luciferase reporter gene assay
[6] = Inhibition of HCV genotype 1b NS5A infected in Huh7 cells assessed as reduction in viral replication incubated 3 days and measured by Bright-Glo luciferase assay

| Structure (SMILES) | IC50 [1] | IC50 [2] | IC50 [3] | IC50 [4] | IC50 [5] | EC50 [6] |
| --- | --- | --- | --- | --- | --- | --- |
| COC(=O)N[C@H](C(=O)N1CCC[C@H]1c1ncc(-c2cc(C)c(C#CC#Cc3cnc([C@@H]4CCCN4C(=O)[C@H](NC(=O)OC)c4ccccc4)[nH]3)c(-c3ccccc3)c2)[nH]1)C(C)C | 0.01 nM | – | 0.124 nM | 0.026 nM | 0.003 nM | – |
| COC(=O)N[C@H](C(=O)N1CCC[C@H]1c1ncc(C#CC#Cc2ccc(-c3cnc([C@@H]4CCCN4C(=O)[C@@H](NC(=O)OC)C(C)C)[nH]3)cc2-c2cccc(-c3ccccc3)c2)[nH]1)C(C)C | 0.019 nM | 0.763 nM | 0.47 nM | 2.79 nM | 0.449 nM | – |
| COC(=O)N[C@H](C(=O)N1CCC[C@H]1c1ncc(C#CC#Cc2c(C)cc(-c3cnc([C@@H]4CCCN4C(=O)[C@@H](NC(=O)OC)C(C)C)[nH]3)cc2-c2ccccc2)[nH]1)C(C)C | 0.006 nM | 0.027 nM | 0.037 nM | 0.364 nM | 0.008 nM | – |
| COC(=O)N[C@H](C(=O)N1CCC[C@H]1c1ncc(C#CC#Cc2c(F)cc(-c3cnc([C@@H]4CCCN4C(=O)[C@@H](NC(=O)OC)C(C)C)[nH]3)cc2-c2ccccc2)[nH]1)C(C)C | 0.019 nM | 0.12 nM | 0.064 nM | 0.459 nM | 0.015 nM | – |
| COC(=O)N[C@H](C(=O)N1CCC[C@H]1c1ncc(-c2cc(F)c(C#CC#Cc3cnc([C@@H]4CCCN4C(=O)[C@H](NC(=O)OC)c4ccccc4)[nH]3)c(-c3ccccc3)c2)[nH]1)C(C)C | 0.012 nM | 0.026 nM | 0.051 nM | 0.02 nM | 0.005 nM | – |
| COC(=O)N[C@H](C(=O)N1CCC[C@H]1c1ncc(-c2ccc(C#CC#Cc3cnc([C@@H]4CCCN4C(=O)[C@H](NC(=O)OC)c4ccccc4)[nH]3)c(Oc3ccccc3)c2)[nH]1)C(C)C | 0.008 nM | 0.019 nM | 0.214 nM | 0.04 nM | 0.013 nM | – |
| COC(=O)N[C@H](C(=O)N1CCC[C@H]1c1ncc(-c2ccc(C#CC#Cc3cnc([C@@H]4CCCN4C(=O)[C@H](NC(=O)OC)c4ccccc4)[nH]3)c(Sc3ccccc3)c2)[nH]1)C(C)C | 0.009 nM | 0.035 nM | 0.257 nM | 0.091 nM | 0.014 nM | – |
| COC(=O)N[C@H](C(=O)N1CCC[C@H]1c1ncc(-c2ccc(C#CC#Cc3cnc([C@@H]4CCCN4C(=O)[C@H](NC(=O)OC)c4ccccc4)[nH]3)c(N3CCN(C)CC3)c2)[nH]1)C(C)C | > 10 nM | 3.1 nM | 0.473 nM | > 10 nM | 0.143 nM | 0.034 nM |
| COC(=O)N[C@H](C(=O)N1CCC[C@H]1c1ncc(C#CC#Cc2ccc(-c3cnc([C@@H]4CCCN4C(=O)[C@@H](NC(=O)OC)C(C)C)[nH]3)cc2-c2ccc3ccccc3c2)[nH]1)C(C)C | 0.008 nM | 0.267 nM | 0.248 nM | 0.864 nM | 0.028 nM | – |
| COC(=O)N[C@H](C(=O)N1CCC[C@H]1c1ncc(C#CC#Cc2ccc(-c3cnc([C@@H]4CCCN4C(=O)[C@@H](NC(=O)OC)C(C)C)[nH]3)cc2-c2ccc(C(C)(C)C)cc2)[nH]1)C(C)C | 0.011 nM | 0.356 nM | 0.642 nM | 1.29 nM | 1.68 nM | – |

Next, values leading:

| IC50 [1] | IC50 [2] | IC50 [3] | IC50 [4] | IC50 [5] | EC50 [6] | Structure (SMILES) |
| --- | --- | --- | --- | --- | --- | --- |
| 0.011 nM | 0.027 nM | 0.072 nM | 0.035 nM | 0.011 nM | – | COC(=O)N[C@H](C(=O)N1CCC[C@H]1c1ncc(-c2ccc(C#CC#Cc3cnc([C@@H]4CCCN4C(=O)[C@H](NC(=O)OC)c4ccccc4)[nH]3)c(N(C)c3ccccc3)c2)[nH]1)C(C)C |
| – | 0.019 nM | 0.028 nM | 0.016 nM | 0.001 nM | – | COC(=O)N[C@H](C(=O)N1CCC[C@H]1c1ncc(-c2ccc(C#CC#Cc3cnc([C@@H]4CCCN4C(=O)[C@H](NC(=O)OC)c4ccccc4)[nH]3)c(-c3cccc(F)c3F)c2)[nH]1)C(C)C |
| 0.007 nM | 0.107 nM | 1.07 nM | 0.093 nM | 0.104 nM | – | COC(=O)N[C@H](C(=O)N1CCC[C@H]1c1ncc(-c2ccc(C#CC#Cc3cnc([C@@H]4CCCN4C(=O)[C@H](NC(=O)OC)c4ccccc4)[nH]3)c(-c3cccc(C(C)(C)C)c3)c2)[nH]1)C(C)C |
| 0.011 nM | 0.052 nM | 0.138 nM | 0.038 nM | 0.013 nM | – | COC(=O)N[C@H](C(=O)N1CCC[C@H]1c1ncc(-c2ccc(C#CC#Cc3cnc([C@@H]4CCCN4C(=O)[C@H](NC(=O)OC)c4ccccc4)[nH]3)c(-c3ccc(N(C)C)cc3)c2)[nH]1)C(C)C |
| 0.012 nM | 0.1 nM | 0.21 nM | 0.629 nM | 0.007 nM | 0.006 nM | COC(=O)N[C@H](C(=O)N1CCC[C@H]1c1ncc(C#CC#Cc2ccc(-c3cnc([C@@H]4CCCN4C(=O)[C@H](NC(=O)OC)c4ccccc4)[nH]3)cc2)[nH]1)C(C)C |
| 0.123 nM | 0.2 nM | 1.34 nM | 4.92 nM | 0.12 nM | 0.012 nM | COC(=O)N[C@H](C(=O)N1CCC[C@H]1c1ncc(-c2ccc(C#CC#Cc3cnc([C@@H]4CCCN4C(=O)[C@@H](NC(=O)OC)C(C)C)[nH]3)cc2)[nH]1)c1ccccc1 |
| 0.007 nM | 0.129 nM | 0.072 nM | 1.31 nM | 0.03 nM | 0.002 nM | COC(=O)N[C@H](C(=O)N1CCC[C@H]1c1ncc(C#CC#Cc2ccc(-c3cnc([C@@H]4CCCN4C(=O)[C@@H](NC(=O)OC)C(C)C)[nH]3)cc2-c2ccccc2)[nH]1)C(C)C |
| 0.548 nM | 1.4 nM | 0.113 nM | 0.353 nM | 0.023 nM | 0.004 nM | COC(=O)N[C@H](C(=O)N1CCC[C@H]1c1ncc(-c2ccc(C#CC#Cc3cnc([C@@H]4CCCN4C(=O)[C@H](NC(=O)OC)c4ccccc4)[nH]3)c(-c3ccc(N4CCN(C)CC4)cc3)c2)[nH]1)C(C)C |
| 0.011 nM | 0.122 nM | 0.626 nM | 0.123 nM | 0.033 nM | – | COC(=O)N[C@H](C(=O)N1CCC[C@H]1c1ncc(-c2ccc(C#CC#Cc3cnc([C@@H]4CCCN4C(=O)[C@H](NC(=O)OC)c4ccccc4)[nH]3)c(-c3cccc(-c4ccccc4)c3)c2)[nH]1)C(C)C |
| 0.006 nM | 0.131 nM | 0.418 nM | 0.064 nM | – | – | COC(=O)N[C@H](C(=O)N1CCC[C@H]1c1ncc(-c2ccc(C#CC#Cc3cnc([C@@H]4CCCN4C(=O)[C@H](NC(=O)OC)c4ccccc4)[nH]3)c(-c3ccc(-c4ccccc4)cc3)c2)[nH]1)C(C)C |
| – | 0.026 nM | 0.045 nM | 0.034 nM | – | 0.0029 nM | COC(=O)N[C@H](C(=O)N1CCC[C@H]1c1ncc(-c2ccc(C#CC#Cc3cnc([C@@H]4CCCN4C(=O)[C@H](NC(=O)OC)c4ccccc4)[nH]3)c(-c3ccccc3)c2)[nH]1)C(C)C |
| 0.01 nM | 0.693 nM | 2.3 nM | 0.362 nM | – | – | COC(=O)N[C@H](C(=O)N1CCC[C@H]1c1ncc(-c2ccc(C#CC#Cc3cnc([C@@H]4CCCN4C(=O)[C@H](NC(=O)OC)c4ccccc4)[nH]3)c(-c3ccc(C(C)(C)C)cc3)c2)[nH]1)C(C)C |
| 0.036 nM | 0.126 nM | 0.276 nM | 0.329 nM | 0.016 nM | 0.007 nM | COC(=O)N[C@H](C(=O)N1CCC[C@H]1c1ncc(-c2ccc(C#CC#Cc3cnc([C@@H]4CCCN4C(=O)[C@H](NC(=O)OC)c4ccccc4)[nH]3)cc2)[nH]1)C(C)C |
| 0.423 nM | 6.4 nM | 0.758 nM | 10.7 nM | 0.431 nM | 0.012 nM | COC(=O)N[C@H](C(=O)N1CCC[C@H]1c1ncc(C#CC#Cc2ccc(-c3cnc([C@@H]4CCCN4C(=O)[C@@H](NC(=O)OC)C(C)C)[nH]3)cc2)[nH]1)c1ccccc1 |
